± gives the expanded uncertainty stated by the source.
Assay: an = ratio of the nth substance listed
Conditions: 101 kPa, Liquid; for mass density: Vibrating tube method; for viscosity: rotating cylinders

| SMILES | mass density (293.15 K, a2 = 2) [kg/m3] | mass density (293.15 K, a2 = 4) [kg/m3] | viscosity (293.15 K, a2 = 2) [mPa·s] | viscosity (293.15 K, a2 = 4) [mPa·s] | mass density (298.15 K, a2 = 2) [kg/m3] | mass density (298.15 K, a2 = 4) [kg/m3] | viscosity (298.15 K, a2 = 2) [mPa·s] | viscosity (298.15 K, a2 = 4) [mPa·s] | mass density (303.15 K, a2 = 2) [kg/m3] | mass density (303.15 K, a2 = 4) [kg/m3] | viscosity (303.15 K, a2 = 2) [mPa·s] | viscosity (303.15 K, a2 = 4) [mPa·s] | mass density (308.15 K, a2 = 2) [kg/m3] | mass density (308.15 K, a2 = 4) [kg/m3] | viscosity (308.15 K, a2 = 2) [mPa·s] | viscosity (308.15 K, a2 = 4) [mPa·s] | mass density (313.15 K, a2 = 2) [kg/m3] | mass density (313.15 K, a2 = 4) [kg/m3] | viscosity (313.15 K, a2 = 2) [mPa·s] | viscosity (313.15 K, a2 = 4) [mPa·s] | other results |
| --- | --- | --- | --- | --- | --- | --- | --- | --- | --- | --- | --- | --- | --- | --- | --- | --- | --- | --- | --- | --- | --- |
| C[N+](C)(C)CCO.[Cl-] [choline chloride] + OCC(O)CO | 1194 ± 5 | 1217 ± 5 | 514.6 ± 41 | 578.2 ± 48 | 1191 ± 5 | 1214 ± 5 | 365.7 ± 25 | 400.3 ± 28 | 1188 ± 5 | 1211 ± 5 | 265.7 ± 15 | 283.4 ± 17 | 1185 ± 5 | 1208 ± 5 | 197 ± 9.3 | 205.1 ± 9.9 | 1183 ± 5 | 1205 ± 5 | 148.9 ± 5.6 | 151.7 ± 5.8 | mass density (318.15 K, a2 = 2): 1180 ± 5 kg/m3; mass density (318.15 K, a2 = 4): 1202 ± 5 kg/m3; viscosity (318.15 K, a2 = 2): 114.7 ± 3.4 mPa·s; viscosity (318.15 K, a2 = 4): 113 ± 3.3 mPa·s; mass density (323.15 K, a2 = 2): 1177 ± 5 kg/m3; mass density (323.15 K, a2 = 4): 1200 ± 5 kg/m3; viscosity (323.15 K, a2 = 2): 89.81 ± 2 mPa·s; viscosity (323.15 K, a2 = 4): 87.96 ± 1.9 mPa·s |
| C[N+](C)(C)C.[Cl-] [tetramethylammonium chloride] + OCC(O)CO | 1158 ± 5 | 1180 ± 5 | 581.8 ± 48 | 557.5 ± 46 | 1155 ± 5 | 1177 ± 5 | 406.9 ± 29 | 384.7 ± 27 | 1152 ± 5 | 1174 ± 5 | 290.5 ± 17 | 272 ± 16 | 1149 ± 5 | 1171 ± 5 | 212.4 ± 10 | 197 ± 9.3 | 1147 ± 5 | 1168 ± 5 | 158.5 ± 6.3 | 145.8 ± 5.4 | mass density (318.15 K, a2 = 2): 1144 ± 5 kg/m3; mass density (318.15 K, a2 = 4): 1166 ± 5 kg/m3; viscosity (318.15 K, a2 = 2): 120.7 ± 3.7 mPa·s; viscosity (318.15 K, a2 = 4): 110.2 ± 3.1 mPa·s; mass density (323.15 K, a2 = 2): 1141 ± 5 kg/m3; mass density (323.15 K, a2 = 4): 1163 ± 5 kg/m3; viscosity (323.15 K, a2 = 2): 93.57 ± 2.1 mPa·s; viscosity (323.15 K, a2 = 4): 84.8 ± 1.7 mPa·s |

— the NIST ThermoML archive (doi:10.1021/acs.jced.5b00717)
